The NIST ThermoML archive (doi:10.1016/j.tca.2011.08.002)

Legend:
[1] = xn = mol fraction of the nth substance listed; details: 101 kPa, Liquid, Vibrating tube method
[2] = refractive index (Na D-line) (dimensionless); xn = mol fraction of the nth substance listed; details: 101 kPa, Liquid, Standard Abbe refractometry

C1CCC(NC2CCCCC2)CC1 [N-cyclohexylcyclohexanamine] + CCCO
Details	mass density, [1] [kg/m3]	refractive index, [2]
288.15 K, x2 = 0	915.498	1.48636
288.15 K, x2 = 0.0527	914.71	1.48522
288.15 K, x2 = 0.1009	913.805	1.48396
288.15 K, x2 = 0.2004	911.438	1.48074
288.15 K, x2 = 0.3002	908.197	1.47672
288.15 K, x2 = 0.4003	903.914	1.47182
288.15 K, x2 = 0.5005	898.063	1.46554
288.15 K, x2 = 0.6	889.96	1.45743
288.15 K, x2 = 0.6998	878.617	1.44689
288.15 K, x2 = 0.8	862.501	1.4327
288.15 K, x2 = 0.8999	839.78	1.41365
288.15 K, x2 = 0.9491	825.362	1.40206
293.15 K, x2 = 0	911.705	1.48416
293.15 K, x2 = 0.0527	910.893	1.48299
293.15 K, x2 = 0.1009	909.957	1.48175
293.15 K, x2 = 0.2004	907.522	1.47851
293.15 K, x2 = 0.3002	904.203	1.47445
293.15 K, x2 = 0.4003	899.835	1.4695
293.15 K, x2 = 0.5005	893.905	1.4632
293.15 K, x2 = 0.6	885.737	1.45509
293.15 K, x2 = 0.6998	874.377	1.44458
293.15 K, x2 = 0.8	858.315	1.43047
293.15 K, x2 = 0.8999	835.696	1.41145
293.15 K, x2 = 0.9491	821.334	1.39989
298.15 K, x2 = 0	907.923	1.48198
298.15 K, x2 = 0.0527	907.079	1.48079
298.15 K, x2 = 0.1009	906.116	1.47952
298.15 K, x2 = 0.2004	903.612	1.47626
298.15 K, x2 = 0.3002	900.208	1.47217
298.15 K, x2 = 0.4003	895.758	1.46722
298.15 K, x2 = 0.5005	889.747	1.46088
298.15 K, x2 = 0.6	881.518	1.45273
298.15 K, x2 = 0.6998	870.137	1.44226
298.15 K, x2 = 0.8	854.115	1.4282
298.15 K, x2 = 0.8999	831.592	1.40927
298.15 K, x2 = 0.9491	817.281	1.3977
303.15 K, x2 = 0	904.144	1.47978
303.15 K, x2 = 0.0527	903.271	1.47861
303.15 K, x2 = 0.1009	902.276	1.47729
303.15 K, x2 = 0.2004	899.7	1.47402
303.15 K, x2 = 0.3002	896.218	1.4699
303.15 K, x2 = 0.4003	891.683	1.46491
303.15 K, x2 = 0.5005	885.59	1.45856
303.15 K, x2 = 0.6	877.299	1.4504
303.15 K, x2 = 0.6998	865.887	1.43992
303.15 K, x2 = 0.8	849.899	1.42592
303.15 K, x2 = 0.8999	827.461	1.40709
303.15 K, x2 = 0.9491	813.202	1.39547
308.15 K, x2 = 0	900.372	1.47761
308.15 K, x2 = 0.0527	899.466	1.47642
308.15 K, x2 = 0.1009	898.437	1.47508
308.15 K, x2 = 0.2004	895.78	1.47179
308.15 K, x2 = 0.3002	892.225	1.46765
308.15 K, x2 = 0.4003	887.605	1.46262
308.15 K, x2 = 0.5005	881.429	1.45625
308.15 K, x2 = 0.6	873.074	1.44805
308.15 K, x2 = 0.6998	861.626	1.43759
308.15 K, x2 = 0.8	845.662	1.42358
308.15 K, x2 = 0.8999	823.3	1.40482
308.15 K, x2 = 0.9491	809.088	1.39323
313.15 K, x2 = 0	896.608	1.47562
313.15 K, x2 = 0.0527	895.664	1.4743
313.15 K, x2 = 0.1009	894.6	1.47287
313.15 K, x2 = 0.2004	891.876	1.4695
313.15 K, x2 = 0.3002	888.227	1.46533
313.15 K, x2 = 0.4003	883.521	1.46024
313.15 K, x2 = 0.5005	877.263	1.45383
313.15 K, x2 = 0.6	868.843	1.44565
313.15 K, x2 = 0.6998	857.35	1.43509
313.15 K, x2 = 0.8	841.4	1.42112
313.15 K, x2 = 0.8999	819.106	1.40242
313.15 K, x2 = 0.9491	804.934	1.39093
318.15 K, x2 = 0	892.847	1.47347
318.15 K, x2 = 0.0527	891.862	1.47211
318.15 K, x2 = 0.1009	890.759	1.47068
318.15 K, x2 = 0.2004	887.957	1.4673
318.15 K, x2 = 0.3002	884.225	1.46306
318.15 K, x2 = 0.4003	879.43	1.45795
318.15 K, x2 = 0.5005	873.086	1.45151
318.15 K, x2 = 0.6	864.613	1.44331
318.15 K, x2 = 0.6998	853.054	1.43279
318.15 K, x2 = 0.8	837.107	1.41883
318.15 K, x2 = 0.8999	814.869	1.40021
318.15 K, x2 = 0.9491	800.736	1.38876
323.15 K, x2 = 0	889.089	1.47134
323.15 K, x2 = 0.0527	888.061	1.46997
323.15 K, x2 = 0.1009	886.919	1.46853
323.15 K, x2 = 0.2004	884.032	1.4651
323.15 K, x2 = 0.3002	880.209	1.46087
323.15 K, x2 = 0.4003	875.326	1.4557
323.15 K, x2 = 0.5005	868.893	1.4492
323.15 K, x2 = 0.6	860.363	1.44112
323.15 K, x2 = 0.6998	848.736	1.43046
323.15 K, x2 = 0.8	832.782	1.41649
323.15 K, x2 = 0.8999	810.587	1.39788
323.15 K, x2 = 0.9491	796.489	1.38638
